Measured values reported in patent US11225469B2, “Inhibitors of phosphoglycerate dehydrogenase (PHGDH) and uses thereof” (Whitehead Institute for Biomedical Research, priority 2015, dated 2022).

Columns and labels:
panel of 168 GPCRs = assay: Cross-reactivity in a panel of 168 GPCRs
[1] = system: MDA-MB-468 orthotopic xenografts; assay: MDA-MB-468 orthotopic xenografts; assay type: in vivo, mouse; details: 40 mg/kg daily, IP
Description: (§1) Female NOD.CB17-Prkdc^scid/J mice, 6-8 weeks old, were obtained from Jackson Laboratories. All animals were provided with food ad libitum for the duration for the duration of the experiment. The animals were allocated randomly for induction with MDA-MB-231 or MDA-MB-468 tumors and tumor group was assigned blindly. 500,000 MDA-MB-231 or MDA-MB-468 cells were injected into the 4th mammary fat pad of each mouse. After 30 days, the tumors were palpable, and the mice were pooled by tumor type and divided randomly to two groups, which were assigned blindly to vehicle or NCT-503 treatment. […] Caliper measurements were obtained twice weekly and tumor volumes were calculated with the modified ellipsoid formula: volume=0.5×width^2×length.
For quantitation of necrotic regions, fixed tumors were embedded and sections stained with hematoxylin and eosin. Slides were scanned with a Leica Aperio AT2 brightfield scanner. Tumor and necrotic cross-sectional regions were manually delineated and measured using Leica ImageScope software to calculate the percentage of necrosis.

[2] = Body weight of treated xenograft mice; assay type: in vivo, mouse; details: 24-day treatment
Description: as §1

GPD1 = GPD1 (Homo sapiens (Human), UniProt P21695); assay: Counter-screen against GPD1; assay type: biochemical; details: Table E11
Chain of GPD1 (P21695 whole entry): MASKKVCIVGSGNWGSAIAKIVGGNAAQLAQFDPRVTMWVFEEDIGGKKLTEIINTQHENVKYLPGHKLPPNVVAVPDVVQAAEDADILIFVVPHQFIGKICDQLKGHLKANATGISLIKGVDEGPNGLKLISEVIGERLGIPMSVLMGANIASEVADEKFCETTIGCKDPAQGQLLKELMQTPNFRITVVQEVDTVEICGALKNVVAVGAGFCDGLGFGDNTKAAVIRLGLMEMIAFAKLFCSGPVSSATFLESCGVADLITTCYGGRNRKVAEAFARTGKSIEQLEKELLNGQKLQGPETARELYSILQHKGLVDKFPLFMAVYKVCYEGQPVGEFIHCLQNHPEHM
Description: GAPDH substrate buffer contained 210 mM Tris pH 7.4, 2.5 mM NaH2PO4 pH 7.4, 2 mM DL-Glyceraldehyde 3-phosphate, 1.75 mM MgCl2, 0.01 mM NAD+, 0.11 mM resazurin, 0.2 mg/mL BSA, and 0.01% Tween-20. GAPDH enzyme buffer contained 50 mM Tris pH 7.4, 100 mM NaCl, 0.02 mM TCEP, 0.01 mM EDTA, 0.1 mg/mL BSA, 0.42 mg/mL diaphorase, and 2.5 nM GAPDH. The GAPDH, GPD1, and GPD1L assays were run in 384-well plates using the same protocol and readout as the PHGDH assay. […] GPD1 enzyme buffer contained 50 mM Tris pH 7.4, 100 mM NaCl, 0.08 mM TCEP, 0.4 mg/mL BSA, 0.03 μM EDTA, and 0.8 nM GPD1. 70 μL of substrate buffer were mixed with 10 μL enzyme buffer. GPD1L substrate buffer contained 200 mM Tris pH 7.4, 0.05 mM sn-G3-P, 2 mM MgCl2, 0.04 mM NAD+, 0.11 mM resazurin, 0.1 mg/mL BSA, and 0.02% Tween-20. GPD1L enzyme buffer contained 50 mM Tris pH 7.4, 100 mM NaCl, 0.02 mM TCEP, 0.42 mg/mL diaphorase, 0.1 mg/mL BSA, 0.008 μM EDTA, and 16 nM GPD1L. 40 μL of substrate buffer were mixed with 40 μL of enzyme buffer.
The GAPDH and GPD1L assays were read using the same protocol as the PHGDH assay. The GPD1 assay was read using loss of NADH fluorescence (λex=340 nm and λem=460 nm).

[3] = system: PHGDH-dependent cell lines (MDA-MB-468, BT-20, HCC70, HT1080, and MT-3); assay: Cytotoxicity (Cell Titer-Glo), PHGDH-dependent cell lines; assay type: cell-based; details: Homo sapiens
Description: Knockdown of PHGDH is selectively toxic towards PHGDH-dependent cell lines, and minimally toxic towards PHGDH-independent cell lines. […] Cell count was determined by quantitating the amount of ATP present with CellTitreGlo® measurements 96 hours after dosage.
Cells were seeded in white 96-well plates (Greiner) at a density of 2000 cells/well (MDA-MB-468, BT-20, MT-3) or 1000 cells/well (all other cell lines) and allowed to attach for 24 hours. Compounds were prepared in DMSO and dispensed using an HP D300 compound dispenser. Cell viability was assessed with Cell Titer-Glo (Promega) at four days following treatment and luminescence measured with a SpectraMax M5 Plate Reader (Molecular Devices). Luminescence was normalized to an untreated control in identical medium. For rescue experiments, RPMI was supplemented with 40 μM adenosine, uridine, guanosine, cytidine, deoxyadenosine, thymidine, deoxyguanosine, and deoxycytidine and the medium was replaced daily.

[4] = system: panel of other dehydrogenases; assay: Panel of other dehydrogenases; assay type: biochemical

For `Cc1cc(C)nc(NC(=S)N2CCN(Cc3ccc(C(F)(F)F)cc3)CC2)c1` [Compound 267, N-(4,6-dimethylpyridin-2-yl)-4-(4-(trifluoromethyl)benzyl)piperazine-1-carbothioamide], the “cross-reactivity, modulation of activity” value (panel of 168 GPCRs) was < 30%, the fraction of necrosis [1] was “increases the fraction of necrosis” and the “growth and weight of xenografts” value [1] was “reduced the growth and weight”. For the same compound, the “body weight of mice” value [2] was “did not lose weight”, the IC50 (GPD1) was ≥ 100 µM and the EC50 [3] was 8 to 16 µM. For the same compound, the “activity against a panel of other dehydrogenases” value [4] was “inactive”.
